This is an account of results in article PMC5761851, “Application of a phenotypic drug discovery strategy to identify biological and chemical starting points for inhibition of TSLP production in lung epithelial cells” (PLoS ONE, 2018).

Holding throughout (assay): kinase selectivity panel
Type in all cases: biochemical

The target in one assay is T1, MAPK1 (Homo sapiens, UniProt P27361).
T1 construct: purchased Eurofins Pharma Discovery Services (KinaseProfiler; Cerep BioPrint panel)
As to conditions: read-out: percentage of control activity (POC), MAPK1. The method, boiled down:
(§1)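 The compound is screened at 10 μM in duplicate against 125 representative kinases. Selected activities are followed up with a nine-concentration duplicate titration to give IC50.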

Another assay has as its target T2, EphA2 (Homo sapiens, UniProt P29317).
T2 construct: purchased Eurofins Pharma Discovery Services (KinaseProfiler; Cerep BioPrint panel)
Particulars: read-out: percentage of control activity (POC), EphA2. The essentials:
as §1

A further assay concerns the target T3, PKCι (Homo sapiens, UniProt P41743).
T3 construct: purchased Eurofins Pharma Discovery Services (KinaseProfiler; Cerep BioPrint panel)
T3 sequence (P41743 1-596): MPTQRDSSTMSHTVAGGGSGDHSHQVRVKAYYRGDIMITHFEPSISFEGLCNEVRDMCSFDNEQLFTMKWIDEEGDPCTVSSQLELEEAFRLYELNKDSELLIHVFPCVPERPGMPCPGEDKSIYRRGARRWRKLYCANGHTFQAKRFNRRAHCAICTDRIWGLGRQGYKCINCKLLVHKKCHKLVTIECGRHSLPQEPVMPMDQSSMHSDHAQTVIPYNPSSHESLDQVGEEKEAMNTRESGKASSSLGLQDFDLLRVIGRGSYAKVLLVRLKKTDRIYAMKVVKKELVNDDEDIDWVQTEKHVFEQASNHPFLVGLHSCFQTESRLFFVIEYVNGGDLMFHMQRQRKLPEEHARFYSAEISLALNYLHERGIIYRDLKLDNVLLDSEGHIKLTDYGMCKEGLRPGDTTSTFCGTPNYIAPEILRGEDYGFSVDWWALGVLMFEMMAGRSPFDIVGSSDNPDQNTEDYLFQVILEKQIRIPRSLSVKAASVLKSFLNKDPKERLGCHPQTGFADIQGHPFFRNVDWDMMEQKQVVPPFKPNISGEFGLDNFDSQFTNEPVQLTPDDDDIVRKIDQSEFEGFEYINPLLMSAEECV
As to conditions: read-out: percentage of control activity (POC), PKCι. The essentials:
as §1

The next assay has as its target T4, PDK1 (Homo sapiens, UniProt O15530).
T4 construct: purchased Eurofins Pharma Discovery Services (KinaseProfiler; Cerep BioPrint panel)
T4 sequence (O15530 1-556): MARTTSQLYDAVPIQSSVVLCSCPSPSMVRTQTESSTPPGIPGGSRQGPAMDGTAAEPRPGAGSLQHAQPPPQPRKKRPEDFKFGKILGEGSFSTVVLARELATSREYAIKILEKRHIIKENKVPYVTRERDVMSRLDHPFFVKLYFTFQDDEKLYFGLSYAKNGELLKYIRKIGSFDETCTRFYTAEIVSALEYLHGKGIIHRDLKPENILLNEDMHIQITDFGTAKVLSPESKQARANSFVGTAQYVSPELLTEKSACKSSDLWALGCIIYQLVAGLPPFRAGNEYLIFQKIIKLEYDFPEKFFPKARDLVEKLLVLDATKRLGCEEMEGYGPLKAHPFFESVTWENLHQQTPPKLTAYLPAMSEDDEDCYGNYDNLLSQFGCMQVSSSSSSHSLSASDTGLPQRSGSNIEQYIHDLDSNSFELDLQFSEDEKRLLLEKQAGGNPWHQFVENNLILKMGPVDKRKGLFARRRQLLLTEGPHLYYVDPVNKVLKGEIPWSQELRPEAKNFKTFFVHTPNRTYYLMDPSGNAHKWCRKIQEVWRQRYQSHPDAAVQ
Particulars: read-out: percentage of control activity (POC), PDK1. The essentials:
as §1

For a further assay, the target named is T5, MLK1 (Homo sapiens, UniProt P80192).
T5 construct: purchased Eurofins Pharma Discovery Services (KinaseProfiler; Cerep BioPrint panel)
T5 sequence (P80192 whole entry): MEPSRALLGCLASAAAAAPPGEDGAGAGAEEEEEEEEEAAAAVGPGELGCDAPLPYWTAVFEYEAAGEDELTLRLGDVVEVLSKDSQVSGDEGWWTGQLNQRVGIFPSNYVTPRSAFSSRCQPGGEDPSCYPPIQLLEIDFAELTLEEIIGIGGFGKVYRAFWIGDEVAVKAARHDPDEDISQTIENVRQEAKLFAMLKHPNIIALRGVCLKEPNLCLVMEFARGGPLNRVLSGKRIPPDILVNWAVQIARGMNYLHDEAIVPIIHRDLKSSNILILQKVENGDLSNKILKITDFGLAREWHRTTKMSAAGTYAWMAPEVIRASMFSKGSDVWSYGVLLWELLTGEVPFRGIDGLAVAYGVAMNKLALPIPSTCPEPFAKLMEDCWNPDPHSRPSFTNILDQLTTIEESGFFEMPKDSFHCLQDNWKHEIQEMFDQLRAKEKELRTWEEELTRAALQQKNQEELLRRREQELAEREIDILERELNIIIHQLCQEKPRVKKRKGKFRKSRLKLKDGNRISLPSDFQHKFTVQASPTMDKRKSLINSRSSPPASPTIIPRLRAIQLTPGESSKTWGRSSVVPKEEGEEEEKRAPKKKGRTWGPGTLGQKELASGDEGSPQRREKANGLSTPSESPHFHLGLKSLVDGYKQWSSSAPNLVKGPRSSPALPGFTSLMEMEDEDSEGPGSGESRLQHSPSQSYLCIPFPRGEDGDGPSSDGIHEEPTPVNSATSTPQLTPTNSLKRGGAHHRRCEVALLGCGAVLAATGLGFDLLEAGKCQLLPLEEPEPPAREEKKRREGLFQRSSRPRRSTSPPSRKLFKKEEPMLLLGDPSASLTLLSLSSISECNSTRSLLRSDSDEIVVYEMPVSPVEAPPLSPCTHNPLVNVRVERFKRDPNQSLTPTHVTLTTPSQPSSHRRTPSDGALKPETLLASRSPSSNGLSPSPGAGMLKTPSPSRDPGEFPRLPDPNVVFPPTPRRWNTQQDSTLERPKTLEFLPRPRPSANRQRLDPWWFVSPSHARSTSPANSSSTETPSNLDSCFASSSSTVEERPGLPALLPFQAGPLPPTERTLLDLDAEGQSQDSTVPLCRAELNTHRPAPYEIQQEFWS
As to conditions: read-out: percentage of control activity (POC), MLK1. The method, boiled down:
as §1

Another assay addresses T6, Ret (Homo sapiens, UniProt P07949).
T6 construct: purchased Eurofins Pharma Discovery Services (KinaseProfiler; Cerep BioPrint panel)
As to conditions: read-out: percentage of control activity (POC), Ret. The essentials: as §1

A further assay concerns the target T7, CaMKI (Homo sapiens, UniProt Q14012).
T7 construct: purchased Eurofins Pharma Discovery Services (KinaseProfiler; Cerep BioPrint panel)
As to conditions: read-out: percentage of control activity (POC), CaMKI. The method, boiled down:
as §1

Another assay has as its target T8, Fer (Homo sapiens, UniProt P16591).
T8 construct: purchased Eurofins Pharma Discovery Services (KinaseProfiler; Cerep BioPrint panel)
As to conditions: read-out: percentage of control activity (POC), Fer. The method, boiled down:
as §1

The next assay has as its target T9, Mnk2 (Homo sapiens, UniProt Q9HBH9).
T9 construct: purchased Eurofins Pharma Discovery Services (KinaseProfiler; Cerep BioPrint panel)
Particulars: read-out: percentage of control activity (POC), Mnk2. The essentials:
as §1

In a further assay the target is T10, BRK (Homo sapiens, UniProt Q13882).
T10 construct: purchased Eurofins Pharma Discovery Services (KinaseProfiler; Cerep BioPrint panel)
Particulars: read-out: percentage of control activity (POC), BRK. The method, boiled down:
as §1

The target in another assay is Syk (Homo sapiens, UniProt P43405). As to conditions: read-out: percentage of control activity (POC), Syk. The method, boiled down: as §1
Another assay has as its target T11, CSK (Homo sapiens, UniProt P41240).
T11 construct: purchased Eurofins Pharma Discovery Services (KinaseProfiler; Cerep BioPrint panel)
As to conditions: read-out: percentage of control activity (POC), CSK. The method, boiled down:
as §1

The target in the next assay is T12, Tie2 (Homo sapiens, UniProt Q02763).
T12 construct: purchased Eurofins Pharma Discovery Services (KinaseProfiler; Cerep BioPrint panel)
Particulars: for remaining activity at 10 µM: read-out: percentage of control activity (POC), Tie2. The method, boiled down:
as §1

The next assay has as its target T13, Fyn (Homo sapiens, UniProt P06241).
T13 construct: purchased Eurofins Pharma Discovery Services (KinaseProfiler; Cerep BioPrint panel)
As to conditions: read-out: percentage of control activity (POC), Fyn. The essentials: as §1

For a further assay, the target named is T14, Hck (Homo sapiens, UniProt P08631).
T14 construct: Eurofins Pharma Discovery Services (contract assay service)
Particulars: for remaining activity at 10 µM: read-out: percentage of control activity (POC), Hck. The essentials:
as §1

The target of a further assay is T15, CDK2/cyclinA (Homo sapiens, UniProt P24941).
T15 construct: purchased Eurofins Pharma Discovery Services (KinaseProfiler; Cerep BioPrint panel)
As to conditions: read-out: percentage of control activity (POC), CDK2/cyclinA. The essentials:
as §1

The next assay concerns the target T16, ALK (Homo sapiens, UniProt Q9UM73).
T16 construct: purchased Eurofins Pharma Discovery Services (KinaseProfiler; Cerep BioPrint panel)
Particulars: read-out: percentage of control activity (POC), ALK. The method, boiled down: as §1

The target in the next assay is T17, eEF-2K (Homo sapiens, UniProt O00418).
T17 construct: purchased Eurofins Pharma Discovery Services (KinaseProfiler; Cerep BioPrint panel)
Particulars: read-out: percentage of control activity (POC), eEF-2K. The method, boiled down: as §1

For a further assay, the target named is T18, KDR (Homo sapiens, UniProt P35968).
T18 construct: purchased Eurofins Pharma Discovery Services (KinaseProfiler; Cerep BioPrint panel)
As to conditions: read-out: percentage of control activity (POC), KDR. The method, boiled down:
as §1

The target in the next assay is T19, Fms (Homo sapiens, UniProt P07333).
T19 construct: purchased Eurofins Pharma Discovery Services (KinaseProfiler; Cerep BioPrint panel)
T19 sequence (P07333 20-972): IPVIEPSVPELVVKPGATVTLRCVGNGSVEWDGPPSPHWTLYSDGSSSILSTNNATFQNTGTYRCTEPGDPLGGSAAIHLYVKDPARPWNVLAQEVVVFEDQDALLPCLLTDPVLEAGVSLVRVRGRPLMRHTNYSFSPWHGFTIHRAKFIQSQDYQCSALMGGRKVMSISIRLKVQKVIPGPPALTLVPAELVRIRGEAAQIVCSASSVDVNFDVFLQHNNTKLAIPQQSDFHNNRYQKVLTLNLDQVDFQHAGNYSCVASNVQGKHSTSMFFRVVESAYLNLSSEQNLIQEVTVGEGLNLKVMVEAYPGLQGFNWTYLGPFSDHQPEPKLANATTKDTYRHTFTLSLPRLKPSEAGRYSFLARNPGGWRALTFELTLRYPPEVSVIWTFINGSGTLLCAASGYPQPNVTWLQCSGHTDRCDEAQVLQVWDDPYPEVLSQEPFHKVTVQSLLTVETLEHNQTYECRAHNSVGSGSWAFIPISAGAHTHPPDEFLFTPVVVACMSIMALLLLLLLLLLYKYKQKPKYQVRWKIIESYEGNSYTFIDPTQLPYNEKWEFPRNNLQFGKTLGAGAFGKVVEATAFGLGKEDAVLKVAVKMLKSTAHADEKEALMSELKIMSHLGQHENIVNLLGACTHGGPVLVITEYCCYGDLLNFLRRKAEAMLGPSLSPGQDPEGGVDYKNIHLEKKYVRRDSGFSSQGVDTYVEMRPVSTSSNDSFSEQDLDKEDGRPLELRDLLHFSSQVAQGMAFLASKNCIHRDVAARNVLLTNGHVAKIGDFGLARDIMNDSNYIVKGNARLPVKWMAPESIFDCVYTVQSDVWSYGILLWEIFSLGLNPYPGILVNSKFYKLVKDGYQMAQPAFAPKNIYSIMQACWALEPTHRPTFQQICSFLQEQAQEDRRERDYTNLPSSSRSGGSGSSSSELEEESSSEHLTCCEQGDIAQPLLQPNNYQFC
Particulars: for remaining activity at 10 µM: read-out: percentage of control activity (POC), Fms. The essentials:
as §1

T8 sequence (P16591 whole entry): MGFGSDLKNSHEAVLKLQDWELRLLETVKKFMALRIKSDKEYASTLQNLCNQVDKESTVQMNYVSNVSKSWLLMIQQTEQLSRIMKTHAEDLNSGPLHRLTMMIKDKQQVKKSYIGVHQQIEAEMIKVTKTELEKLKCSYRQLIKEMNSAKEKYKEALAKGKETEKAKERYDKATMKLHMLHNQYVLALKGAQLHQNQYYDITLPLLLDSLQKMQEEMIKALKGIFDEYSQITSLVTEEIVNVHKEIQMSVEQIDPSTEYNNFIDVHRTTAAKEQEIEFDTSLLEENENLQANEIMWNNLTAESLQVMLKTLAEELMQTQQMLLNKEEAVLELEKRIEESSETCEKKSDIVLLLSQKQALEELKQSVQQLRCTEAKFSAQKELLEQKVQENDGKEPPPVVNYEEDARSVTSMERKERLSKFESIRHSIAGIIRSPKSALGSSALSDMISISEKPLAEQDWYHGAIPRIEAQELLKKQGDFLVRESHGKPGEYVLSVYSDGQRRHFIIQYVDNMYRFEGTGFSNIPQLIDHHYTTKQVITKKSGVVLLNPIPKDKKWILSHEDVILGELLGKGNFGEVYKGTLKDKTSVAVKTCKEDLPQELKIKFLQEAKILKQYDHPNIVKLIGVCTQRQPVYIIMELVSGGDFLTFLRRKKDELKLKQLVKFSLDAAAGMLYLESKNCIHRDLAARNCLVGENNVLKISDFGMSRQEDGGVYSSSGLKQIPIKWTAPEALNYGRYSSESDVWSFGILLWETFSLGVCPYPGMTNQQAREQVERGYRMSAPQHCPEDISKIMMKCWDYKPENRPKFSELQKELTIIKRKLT
T1 sequence (P27361 whole entry): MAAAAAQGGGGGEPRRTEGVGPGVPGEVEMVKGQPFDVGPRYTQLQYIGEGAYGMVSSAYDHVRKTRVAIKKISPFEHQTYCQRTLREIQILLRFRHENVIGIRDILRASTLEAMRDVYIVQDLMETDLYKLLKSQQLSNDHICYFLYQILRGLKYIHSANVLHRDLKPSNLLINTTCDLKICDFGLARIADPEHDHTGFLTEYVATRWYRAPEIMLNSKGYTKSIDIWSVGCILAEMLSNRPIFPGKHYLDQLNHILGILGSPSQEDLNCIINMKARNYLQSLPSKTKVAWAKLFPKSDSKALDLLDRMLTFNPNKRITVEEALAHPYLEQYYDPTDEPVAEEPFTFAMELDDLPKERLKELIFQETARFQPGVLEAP
T13 sequence (P06241 whole entry): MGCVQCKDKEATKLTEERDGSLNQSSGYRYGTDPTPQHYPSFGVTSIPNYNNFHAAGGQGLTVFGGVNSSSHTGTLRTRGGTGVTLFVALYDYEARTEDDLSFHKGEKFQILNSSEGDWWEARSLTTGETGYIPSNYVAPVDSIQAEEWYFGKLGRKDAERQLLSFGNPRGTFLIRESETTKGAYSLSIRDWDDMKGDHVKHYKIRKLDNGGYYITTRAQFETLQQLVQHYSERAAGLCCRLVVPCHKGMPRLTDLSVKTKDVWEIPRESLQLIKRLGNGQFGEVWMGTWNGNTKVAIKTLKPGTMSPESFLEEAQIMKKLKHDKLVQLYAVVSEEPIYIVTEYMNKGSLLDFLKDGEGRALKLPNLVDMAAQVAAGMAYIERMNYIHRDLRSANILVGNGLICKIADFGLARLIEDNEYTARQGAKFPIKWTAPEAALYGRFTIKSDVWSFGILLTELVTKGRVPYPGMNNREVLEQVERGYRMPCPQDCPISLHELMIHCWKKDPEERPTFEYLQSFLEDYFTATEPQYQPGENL
T2 sequence (P29317 24-976): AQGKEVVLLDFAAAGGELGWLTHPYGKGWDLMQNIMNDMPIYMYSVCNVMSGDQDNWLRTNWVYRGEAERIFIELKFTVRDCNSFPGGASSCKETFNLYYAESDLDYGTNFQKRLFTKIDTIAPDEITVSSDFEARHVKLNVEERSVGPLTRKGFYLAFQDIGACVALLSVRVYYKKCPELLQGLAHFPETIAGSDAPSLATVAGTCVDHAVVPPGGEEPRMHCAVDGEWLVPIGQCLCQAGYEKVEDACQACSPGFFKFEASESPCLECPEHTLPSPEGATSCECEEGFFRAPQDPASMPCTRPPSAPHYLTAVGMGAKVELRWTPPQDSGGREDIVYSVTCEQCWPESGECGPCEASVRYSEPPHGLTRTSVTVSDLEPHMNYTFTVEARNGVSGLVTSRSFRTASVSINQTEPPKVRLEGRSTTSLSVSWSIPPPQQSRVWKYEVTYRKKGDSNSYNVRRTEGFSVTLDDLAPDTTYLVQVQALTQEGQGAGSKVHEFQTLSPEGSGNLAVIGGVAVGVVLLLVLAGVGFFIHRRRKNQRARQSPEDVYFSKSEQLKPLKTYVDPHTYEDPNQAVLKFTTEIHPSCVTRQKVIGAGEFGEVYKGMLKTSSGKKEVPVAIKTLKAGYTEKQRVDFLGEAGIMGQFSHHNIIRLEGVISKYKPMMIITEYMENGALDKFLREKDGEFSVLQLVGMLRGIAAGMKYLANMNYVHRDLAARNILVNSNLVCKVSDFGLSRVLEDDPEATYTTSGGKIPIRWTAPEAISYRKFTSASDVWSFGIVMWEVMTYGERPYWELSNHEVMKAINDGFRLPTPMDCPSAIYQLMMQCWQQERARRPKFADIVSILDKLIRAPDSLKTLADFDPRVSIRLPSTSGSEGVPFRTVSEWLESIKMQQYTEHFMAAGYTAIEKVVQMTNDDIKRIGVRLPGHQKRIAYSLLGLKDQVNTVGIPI

For `CC(C)(C)N1CCC(c2cc(-c3ccc(F)cc3Cl)c3cc[n+]([O-])c(-c4c(Cl)cccc4Cl)c3n2)CC1` [compound 2], the remaining activity at 10 µM on MAPK1 was determined as 105%; at EphA2 it was 103%; on PKCι, 103%; at PDK1, 121%; at MLK1, 99%; at Ret, 100%. For the same molecule, the remaining activity at 10 µM on CaMKI came to 94%; at Fer, 109%; at Mnk2 it was 100%; on BRK it was 98%; at Syk it was 95%; at CSK it was 95%. Further, the remaining activity at 10 µM was determined as 79% at Tie2; 100% on Fyn; 84% on Hck (10 μM); 105% at CDK2/cyclinA; 89% on ALK; 115% on eEF-2K. In addition, the remaining activity at 10 µM at KDR was found to be 92%; on Fms, 100%.

Regarding `Cc1ccc(C(=O)NCC2CC2)cc1-c1ccc2c(c1)NC(=O)C21CCCC1` [compound 3], the remaining activity at 10 µM was 88% at MAPK1; 100% at EphA2; 100% at PKCι; 98% at PDK1; 97% on MLK1; 89% at Ret. Moreover, the remaining activity at 10 µM is 95% on CaMKI; 102% at Fer; 91% at Mnk2; 103% on BRK; 101% at Syk; 107% on CSK. Further, the remaining activity at 10 µM on Tie2 stood at 96%; at Fyn, 97%; on Hck (10 μM) it was 87%; on CDK2/cyclinA, 101%; at ALK, 77%; on eEF-2K it was 111%. The remaining activity at 10 µM came to 93% on KDR and 47% on Fms. Further, at 10 µM the inhibition against Fms was 53%.

In the case of `Cn1cc(-c2cccc(-c3nc(C(=O)NC4C5CC6CC4CC(O)(C6)C5)c(N)nc3N)c2)cn1` (stereo not drawn) [compound 4], the remaining activity at 10 µM on MAPK1 was 96%; on EphA2, 97%; on PKCι, 87%; on PDK1 it was 118%; on MLK1, 79%; on Ret it was 63%. For the same molecule, the remaining activity at 10 µM came out at 87% on CaMKI; 99% on Fer; 86% on Mnk2; 71% on BRK; 66% on Syk; 94% at CSK. Moreover, the remaining activity at 10 µM on Tie2 turned out to be 76%; on Fyn it was 81%; on Hck (10 μM), 47%; on CDK2/cyclinA, 91%; at ALK, 64%; at eEF-2K it was 115%. Besides, the remaining activity at 10 µM at KDR was determined as 72%; on Fms, 63%. At Hck (10 μM), the inhibition at 10 µM amounted to 53%. At Hck (biochemical dose response, duplicate, read-out: Inhibition of indicated activity (IC50, μM): Hck), the IC50 came out at 3.58 µM.

On to `CS(=O)(=O)N1CCN(c2ccc(Nc3ncc(C(N)=O)c(NC4CC4)n3)cc2)CC1` [compound 5], for which the remaining activity at 10 µM on MAPK1 is 34%; on EphA2, 57%; at PKCι it was 83%; on PDK1, 7%; on MLK1, -1%; at Ret, -1%. Besides, the remaining activity at 10 µM came out at 28% on CaMKI; 14% on Fer; 84% on Mnk2; 39% on BRK; 0% at Syk; 74% at CSK. Moreover, the remaining activity at 10 µM at Tie2 is 42%; on Fyn, 10%; at Hck (10 μM), 7%; at CDK2/cyclinA, 78%; at ALK it was 62%; at eEF-2K, 97%. The figures for the remaining activity at 10 µM at KDR and at Fms were 6% and -2%, respectively.

As to `COc1c(NC(=O)c2ccc(C)c(-c3nnc4c(NCC(C)(C)C)nccn34)c2)cc(C(C)(C)C)cc1NS(C)(=O)=O` [compound 7, reference compound], the remaining activity at 10 µM at MAPK1 was found to be 85%; at EphA2, 63%; at PKCι, 103%; on PDK1 it was 121%; on MLK1 it was 104%; at Ret, 71%. Moreover, the remaining activity at 10 µM was 108% at CaMKI; 105% at Fer; 98% on Mnk2; 98% on BRK; 86% at Syk; 88% on CSK. Moreover, the remaining activity at 10 µM on Tie2 turned out to be 27%; at Fyn, 99%; on Hck (10 μM), 84%; on CDK2/cyclinA it was 105%; at ALK, 146%; on eEF-2K, 128%. Moreover, the remaining activity at 10 µM on KDR was 82%; on Fms, 26%. Besides, the values for the inhibition at 10 µM at Tie2 and against Fms were 83% and 74%, respectively.
